US6515025B2, “Use of ethynyl alanine amino diol compounds to inhibit enzymatic conversion of angiotensinogen to angiotensin I” (Pharmacia Corporation, priority 1991, dated 2003)
Values joined by “and” are separate entries in the source; they are usually repeats but may differ in a detail not shown here. Identical values can stand only once. Like-named read-outs stand apart in the source and are kept apart here.

Test: Oral bioavailability studies in marmosets (plasma concentration by bioassay)
Type: in vivo
Procedure: The bioavailability in marmosets and dogs was determined by sampling the blood via the femoral vein at various time points after administering the renin inhibitor compounds of the invention in polyethylene glycol 400 at an intragastric dose of 10 mg/kg or at an intravenous dose of 1 mg/kg. Compound concentration in plasma was determined using the bioassay technique described below. The percent bioavailability was calculated by dividing the area under the concentration-vs.-time curve obtained from the intragastric experiment by the area under the concentration-vs.-time curve obtained from the intravenous experiment (adjusting for different doses), and multiplying the result by 100%. The bioavailibility of Example 1 compound is 27% in marmosets and 33% in dogs.
Renin inhibitor plasma concentrations were determined by a bioassay. The plasma samples were extracted with acetonitrile and the extract was evaporated to dryness under nitrogen. Residue was dissolved in 4% bovine serum albumin containing 0.9% NaCl and 5% EDTA. The dissolved residue (0.1 ml) was incubated with a reaction mixture containing human plasma (0.12 ml), 5% phenylmethysulfonylfluoride (1.2 ul), 10% neomycin (2.4 ul), 0.5 M TES buffer (pH 7.4, 24 ul), and 0.6 mU/ml recombinant human renin (1000 U/mg, 50 ul) at 37° C. for 90 minutes. The renin activity was determined by a standard angiotensin I radioimmunoassay (New England Nuclear Corp.). The amount of test compound in the plasma was determined by comparing the extent of inhibition of renin activity with that produced by a known amount of test compound added to plasma and analyzed above.

## C#CC[C@H](NC(=O)C(CC(=O)N(C)CCN(C)C)Cc1ccccc1)C(=O)NC(CC1CCCCC1)[C@@H](O)C(O)CC(C)C (relative stereo) [Example 1, N1-[1R*-[[[1S,1R*-(cyclohexylmethyl)-2S*,3R*-dihydroxy-5-methylhexyl]amino]carbonyl]-3-butynyl]-N4-[2-(dimethylamino)ethyl]-N4-methyl-2S*-(phenylmethyl)butanediamide]
marmoset, IG at 10 mg/kg, Test Run A, 1 hr, individual animals, 10 mg/kg
  Plasma Concentrations: 1989 ng/mL and 1751 ng/mL
marmoset, IG at 10 mg/kg, Test Run A, 2 hr, individual animals, 10 mg/kg
  Plasma Concentrations: 1525 ng/mL and 1811 ng/mL
marmoset, IG at 10 mg/kg, Test Run A, 3 hr, individual animals, 10 mg/kg
  Plasma Concentrations: 5289 ng/mL and 6935 ng/mL
marmoset, IG at 10 mg/kg, Test Run A, 4 hr, individual animals, 10 mg/kg
  Plasma Concentrations: 742 ng/mL and 1766 ng/mL and 1217 ng/mL
marmoset, IG at 10 mg/kg, Test Run A, 5 hr, individual animals, 10 mg/kg
  Plasma Concentrations: 369 ng/mL and 1397 ng/mL and 945 ng/mL
marmoset, IG at 10 mg/kg, Test Run A, 6 hr, individual animals, 10 mg/kg
  Plasma Concentrations: 3177 ng/mL and 4412 ng/mL
marmoset, IG at 10 mg/kg, Test Run A, 8 hr, individual animals, 10 mg/kg
  Plasma Concentrations: 3036 ng/mL and 3800 ng/mL
marmoset, IG at 10 mg/kg, Test Run B, 30 min, individual animals, 10 mg/kg
  Plasma Concentrations: 1016 ng/mL and 1126 ng/mL
marmoset, IG at 10 mg/kg, Test Run B, 1 hr, individual animals, 10 mg/kg
  Plasma Concentrations: 416 ng/mL and 5266 ng/mL and 12300 ng/mL
marmoset, IG at 10 mg/kg, Test Run B, 2 hr, individual animals, 10 mg/kg
  Plasma Concentrations: 519 ng/mL and 4847 ng/mL and 13485 ng/mL
marmoset, IG at 10 mg/kg, Test Run B, 3 hr, individual animals, 10 mg/kg
  Plasma Concentrations: 2751 ng/mL and 3640 ng/mL and 1400 ng/mL
marmoset, IG at 10 mg/kg, Test Run B, 4 hr, individual animals, 10 mg/kg
  Plasma Concentrations: 459 ng/mL and 4502 ng/mL and 11470 ng/mL
marmoset, IG at 10 mg/kg, Test Run B, 5 hr, individual animals, 10 mg/kg
  Plasma Concentrations: 545 ng/mL and 3718 ng/mL and 7783 ng/mL
marmoset, IG at 10 mg/kg, Test Run B, 6 hr, individual animals, 10 mg/kg
  Plasma Concentrations: 2721 ng/mL and 1950 ng/mL
marmoset, IG at 10 mg/kg, Test Run B, 8 hr, individual animals, 10 mg/kg
  Plasma Concentrations: 1566 ng/mL and 1868 ng/mL
marmoset, IV at 1 mg/kg, Test Run C, 2 min, individual animals, 1 mg/kg
  Plasma Concentrations: 21579 ng/mL and 16641 ng/mL
marmoset, IV at 1 mg/kg, Test Run C, 15 min, individual animals, 1 mg/kg
  Plasma Concentrations: 6756 ng/mL and 15283 ng/mL and 11628 ng/mL
marmoset, IV at 1 mg/kg, Test Run C, 30 min, individual animals, 1 mg/kg
  Plasma Concentrations: 10359 ng/mL and 7921 ng/mL
marmoset, IV at 1 mg/kg, Test Run C, 1 hr, individual animals, 1 mg/kg
  Plasma Concentrations: 2665 ng/mL and 2793 ng/mL
marmoset, IV at 1 mg/kg, Test Run C, 2 hr, individual animals, 1 mg/kg
  Plasma Concentrations: 795 ng/mL and 2362 ng/mL and 1667 ng/mL
marmoset, IV at 1 mg/kg, Test Run C, 3 hr, individual animals, 1 mg/kg
  Plasma Concentrations: 404 ng/mL and 562 ng/mL
marmoset, IV at 1 mg/kg, Test Run C, 4 hr, individual animals, 1 mg/kg
  Plasma Concentrations: 608 ng/mL and 1223 ng/mL and 1068 ng/mL
marmoset, IV at 1 mg/kg, Test Run C, 6 hr, individual animals, 1 mg/kg
  Plasma Concentrations: 208 ng/mL and 245 ng/mL
marmoset, IV at 1 mg/kg, Test Run D, 2 min, individual animals, 1 mg/kg
  Plasma Concentrations: 7875 ng/mL and 5900 ng/mL
marmoset, IV at 1 mg/kg, Test Run D, 15 min, individual animals, 1 mg/kg
  Plasma Concentrations: 7239 ng/mL and 2016 ng/mL and 897 ng/mL
marmoset, IV at 1 mg/kg, Test Run D, 30 min, individual animals, 1 mg/kg
  Plasma Concentrations: 2356 ng/mL and 1189 ng/mL
marmoset, IV at 1 mg/kg, Test Run D, 1 hr, individual animals, 1 mg/kg
  Plasma Concentrations: 1250 ng/mL and 1614 ng/mL and 3149 ng/mL
marmoset, IV at 1 mg/kg, Test Run D, 2 hr, individual animals, 1 mg/kg
  Plasma Concentrations: 1004 ng/mL and 1055 ng/mL
marmoset, IV at 1 mg/kg, Test Run D, 3 hr, individual animals, 1 mg/kg
  Plasma Concentrations: 451 ng/mL and 557 ng/mL and 1009 ng/mL
marmoset, IV at 1 mg/kg, Test Run D, 4 hr, individual animals, 1 mg/kg
  Plasma Concentrations: 153 ng/mL and 587 ng/mL and 506 ng/mL
marmoset, IV at 1 mg/kg, Test Run D, 6 hr, individual animals, 1 mg/kg
  Plasma Concentrations: 84 ng/mL and 158 ng/mL
marmoset, plasma, iv, 1 mg/kg, marmoset, IV at 1 mg/kg, 2 min, Test Run D table, read-out: Plasma Concentrations, Mean ± SE
  concentration at 2 min: 11600 ± 2770 ng/mL
marmoset, plasma, iv, 1 mg/kg, marmoset, IV at 1 mg/kg, 15 min, Test Run D table, read-out: Plasma Concentrations, Mean ± SE
  concentration at 15 min: 7300 ± 2250 ng/mL
marmoset, plasma, iv, 1 mg/kg, marmoset, IV at 1 mg/kg, 30 min, Test Run D table, read-out: Plasma Concentrations, Mean ± SE
  concentration at 30 min: 4940 ± 1510 ng/mL
marmoset, plasma, iv, 1 mg/kg, marmoset, IV at 1 mg/kg, 1 hr, Test Run D table, read-out: Plasma Concentrations, Mean ± SE
  concentration at 1 h: 2430 ± 326 ng/mL
marmoset, plasma, iv, 1 mg/kg, marmoset, IV at 1 mg/kg, 2 hr, Test Run D table, read-out: Plasma Concentrations, Mean ± SE
  concentration at 2 h: 1240 ± 271 ng/mL
marmoset, plasma, iv, 1 mg/kg, marmoset, IV at 1 mg/kg, 3 hr, Test Run D table, read-out: Plasma Concentrations, Mean ± SE
  concentration at 3 h: 578 ± 90 ng/mL
marmoset, plasma, iv, 1 mg/kg, marmoset, IV at 1 mg/kg, 4 hr, Test Run D table, read-out: Plasma Concentrations, Mean ± SE
  concentration at 4 h: 691 ± 160 ng/mL
marmoset, plasma, iv, 1 mg/kg, marmoset, IV at 1 mg/kg, 6 hr, Test Run D table, read-out: Plasma Concentrations, Mean ± SE
  concentration at 6 h: 176 ± 31 ng/mL
marmoset, plasma, iv, 1 mg/kg, marmoset, IV at 1 mg/kg, Test Run C, 2 min, individual animals, read-out: Plasma Concentrations
  concentration at 2 min: 13700 ng/mL
marmoset, plasma, iv, 1 mg/kg, marmoset, IV at 1 mg/kg, Test Run C, 30 min, individual animals, read-out: Plasma Concentrations
  concentration at 30 min: 5860 ng/mL
marmoset, plasma, iv, 1 mg/kg, marmoset, IV at 1 mg/kg, Test Run C, 1 hr, individual animals, read-out: Plasma Concentrations
  concentration at 1 h: 3090 ng/mL
marmoset, plasma, iv, 1 mg/kg, marmoset, IV at 1 mg/kg, Test Run C, 3 hr, individual animals, read-out: Plasma Concentrations
  concentration at 3 h: 486 ng/mL
marmoset, plasma, iv, 1 mg/kg, marmoset, IV at 1 mg/kg, Test Run C, 6 hr, individual animals, read-out: Plasma Concentrations
  concentration at 6 h: 264 ng/mL
marmoset, plasma, iv, 1 mg/kg, marmoset, IV at 1 mg/kg, Test Run D, 2 min, individual animals, read-out: Plasma Concentrations
  concentration at 2 min: 4200 ng/mL
marmoset, plasma, iv, 1 mg/kg, marmoset, IV at 1 mg/kg, Test Run D, 30 min, individual animals, read-out: Plasma Concentrations
  concentration at 30 min: 1950 ng/mL
marmoset, plasma, iv, 1 mg/kg, marmoset, IV at 1 mg/kg, Test Run D, 2 hr, individual animals, read-out: Plasma Concentrations
  concentration at 2 h: 554 ng/mL
marmoset, plasma, iv, 1 mg/kg, marmoset, IV at 1 mg/kg, Test Run D, 6 hr, individual animals, read-out: Plasma Concentrations
  concentration at 6 h: 95 ng/mL
marmoset, plasma, oral, 10 mg/kg, marmoset, IG at 10 mg/kg, 30 min, Test Run B, read-out: Plasma Concentrations, Mean ± SE
  concentration at 30 min: 4990 ± 1750 ng/mL
marmoset, plasma, oral, 10 mg/kg, marmoset, IG at 10 mg/kg, 1 hr, Test Run B, read-out: Plasma Concentrations, Mean ± SE
  concentration at 1 h: 3840 ± 1820 ng/mL
marmoset, plasma, oral, 10 mg/kg, marmoset, IG at 10 mg/kg, 2 hr, Test Run B, read-out: Plasma Concentrations, Mean ± SE
  concentration at 2 h: 3960 ± 2000 ng/mL
marmoset, plasma, oral, 10 mg/kg, marmoset, IG at 10 mg/kg, 3 hr, Test Run B, read-out: Plasma Concentrations, Mean ± SE
  concentration at 3 h: 4510 ± 939 ng/mL
marmoset, plasma, oral, 10 mg/kg, marmoset, IG at 10 mg/kg, 4 hr, Test Run B, read-out: Plasma Concentrations, Mean ± SE
  concentration at 4 h: 3360 ± 1730 ng/mL
marmoset, plasma, oral, 10 mg/kg, marmoset, IG at 10 mg/kg, 5 hr, Test Run B, read-out: Plasma Concentrations, Mean ± SE
  concentration at 5 h: 2460 ± 1170 ng/mL
marmoset, plasma, oral, 10 mg/kg, marmoset, IG at 10 mg/kg, 6 hr, Test Run B, read-out: Plasma Concentrations, Mean ± SE
  concentration at 6 h: 3430 ± 457 ng/mL
marmoset, plasma, oral, 10 mg/kg, marmoset, IG at 10 mg/kg, 8 hr, Test Run B, read-out: Plasma Concentrations, Mean ± SE
  concentration at 8 h: 2610 ± 400 ng/mL
marmoset, plasma, oral, 10 mg/kg, marmoset, IG at 10 mg/kg, Test Run A, 30 min, individual animals, read-out: Plasma Concentrations
  concentration at 30 min: 9860 ng/mL
marmoset, plasma, oral, 10 mg/kg, marmoset, IG at 10 mg/kg, Test Run A, 1 hr, individual animals, read-out: Plasma Concentrations
  concentration at 1 h: 1340 ng/mL
marmoset, plasma, oral, 10 mg/kg, marmoset, IG at 10 mg/kg, Test Run A, 2 hr, individual animals, read-out: Plasma Concentrations
  concentration at 2 h: 1560 ng/mL
marmoset, plasma, oral, 10 mg/kg, marmoset, IG at 10 mg/kg, Test Run A, 3 hr, individual animals, read-out: Plasma Concentrations
  concentration at 3 h: 7050 ng/mL
marmoset, plasma, oral, 10 mg/kg, marmoset, IG at 10 mg/kg, Test Run A, 6 hr, individual animals, read-out: Plasma Concentrations
  concentration at 6 h: 4910 ng/mL
marmoset, plasma, oral, 10 mg/kg, marmoset, IG at 10 mg/kg, Test Run A, 8 hr, individual animals, read-out: Plasma Concentrations
  concentration at 8 h: 3570 ng/mL
marmoset, plasma, oral, 10 mg/kg, marmoset, IG at 10 mg/kg, Test Run B, 30 min, individual animals, read-out: Plasma Concentrations
  concentration at 30 min: 1340 ng/mL
marmoset, plasma, oral, 10 mg/kg, marmoset, IG at 10 mg/kg, Test Run B, 6 hr, individual animals, read-out: Plasma Concentrations
  concentration at 6 h: 2860 ng/mL
marmoset, plasma, oral, 10 mg/kg, marmoset, IG at 10 mg/kg, Test Run B, 8 hr, individual animals, read-out: Plasma Concentrations
  concentration at 8 h: 1800 ng/mL
marmoset, plasma, oral, marmosets, IG 10 mg/kg vs IV 1 mg/kg
  bioavailability: 27%
monkey, plasma, marmosets, read-out: terminal half-life (converted)
  half-life: 1.5 h
monkey, plasma, marmosets, read-out: volume of distribution
  Vd: 0.2 L/kg
